Structures are written as SMILES.

The nature of series [1]: Incorporation of vitamin D forms in synthetic mixed micelles. Type of series: physicochemical. Conditions: for incorporation efficiency into synthetic mixed micelles: vitamin D form 0–20 µM, linear incorporation curves, n = 3. The procedure:
Mixed micelles were formed as previously described. Briefly, monoolein (0.3 mM), oleic acid (0.5 mM), phosphatidylcholine (0.04 mM), lysophosphatidylcholine (0.16 mM), and cholesterol (0.1 mM) dissolved in trichloromethane/methanol (2:1, v/v) and vitamin D forms (concentration range: 0–20 µM) dissolved in ethanol were transferred to a glass tube, and the solvent mixture was carefully evaporated under nitrogen. The dried residue was dispersed in DMEM containing 5 mM sodium taurocholate and was incubated at 37 °C for 30 min. The solution was mixed by sonication in a bath sonicator (Branson 3510 MT, 40 kHz; Branson Ultrasonics, Danbury, CT, USA) for 30 min and then incubated at 37 °C for 1 h. It was then filtrated through cellulose ester membranes (0.22 µm) (Millipore S.A.S., Molsheim, France), and the resulting solution of vitamin D-rich mixed micelles was stored at −20 °C until cell culture experiment or vitamin extraction and HPLC analysis. Concentrations of the different forms in the micellar solutions were checked before each experiment.
(§1) Vitamin D forms were extracted from 500 µL aqueous samples using the method previously described. The internal standard was retinyl acetate for D3 and ergocalciferol for both 25(OH)D3 and 1α(OH)D3. After lipid extraction with hexane, dried residues were dissolved in 200 µL of mobile phase (acetonitrile/methanol/water, 60/38/2, v/v/v). A volume of 160 µL was used for HPLC analysis.
(§2) The HPLC system and method were set up according to previous studies. All molecules were identified by retention time compared with pure standards.

The subject of the next series is ASBT. Description: Uptake by Caco-2 cells with ASBT inhibition by simvastatin. Type of series: in vitro ADME, human. Particulars: 100 µM simvastatin (ASBT inhibitor), n = 3. On the procedure: Caco-2 clone TC-7 cells were cultured as previously described. For each experiment, cells were seeded and grown on Millicell® hanging cell culture inserts (Millipore S.A.S., Molsheim, France) for 21 days to obtain confluent and highly differentiated cell monolayers. Twelve hours prior to each experiment, the medium in both the apical and basolateral chambers was replaced with serum-free complete medium. The apical uptake of vitamin D forms incorporated in mixed micelles was determined after a 1 h-incubation period in the presence or absence of inhibitors, as previously described. The % of vitamin D taken up was estimated as the quantity of vitamin D present in the harvested cells divided by the sum of the quantity of vitamin D remaining in the apical chamber and that present in the harvested cells. The efflux of vitamin D forms incorporated in mixed micelles was determined as previously described, with minor changes. Briefly, cells first received the vitamin D-rich micelles at the apical side for 4 h. They were then washed once with PBS and equilibrated in serum-free complete medium for 15 min. […] The % of vitamin D effluxed back to the apical side was estimated as the quantity of vitamin D present in the apical chamber divided by the quantity of vitamin D present in the harvested cells at t0.

The subject of the next series is Caco-2 clone TC-7 cells. Description: Apical uptake of micellar vitamin D forms by Caco-2 cell monolayers. Type of series: in vitro ADME, human. Particulars: 1 h incubation, mixed micelles; for uptake rate by Caco-2 cells at high concentration: >5 µM apical, n = 6; for uptake rate by Caco-2 cells at low concentration: <1 µM apical, n = 3. The procedure:
(§3) Caco-2 clone TC-7 cells were cultured as previously described. For each experiment, cells were seeded and grown on Millicell® hanging cell culture inserts (Millipore S.A.S., Molsheim, France) for 21 days to obtain confluent and highly differentiated cell monolayers. Twelve hours prior to each experiment, the medium in both the apical and basolateral chambers was replaced with serum-free complete medium. The apical uptake of vitamin D forms incorporated in mixed micelles was determined after a 1 h-incubation period in the presence or absence of inhibitors, as previously described. The % of vitamin D taken up was estimated as the quantity of vitamin D present in the harvested cells divided by the sum of the quantity of vitamin D remaining in the apical chamber and that present in the harvested cells. The efflux of vitamin D forms incorporated in mixed micelles was determined as previously described, with minor changes. Briefly, cells first received the vitamin D-rich micelles at the apical side for 4 h. They were then washed once with PBS and equilibrated in serum-free complete medium for 15 min. Cells were either harvested (control) or they received apical medium containing vitamin D-free mixed micelles for 1 h. The % of vitamin D effluxed back to the apical side was estimated as the quantity of vitamin D present in the apical chamber divided by the quantity of vitamin D present in the harvested cells at t0.
as §1, §2

The next series concerns the target T1, human ASBT (Homo sapiens, UniProt Q12908).
T1 construct: host or cells: Griptite cells (HEK-293-derived, own knowledge)
T1 sequence (Q12908 1-348): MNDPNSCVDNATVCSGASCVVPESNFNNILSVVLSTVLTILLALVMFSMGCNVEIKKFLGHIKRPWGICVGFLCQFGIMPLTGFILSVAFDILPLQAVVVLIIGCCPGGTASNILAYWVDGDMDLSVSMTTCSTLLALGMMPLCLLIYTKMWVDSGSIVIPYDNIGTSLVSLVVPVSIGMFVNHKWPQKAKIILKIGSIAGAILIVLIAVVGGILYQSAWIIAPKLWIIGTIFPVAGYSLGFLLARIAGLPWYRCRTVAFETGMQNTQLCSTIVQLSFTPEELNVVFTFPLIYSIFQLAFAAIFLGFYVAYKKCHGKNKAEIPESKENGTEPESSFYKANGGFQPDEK
Description: Uptake by Griptite cells overexpressing ASBT. The series is classed as in vitro ADME. Conditions: Griptite cells transfected with human ASBT vs empty plasmid, 37 °C, 1 h. On the procedure:
Griptite cells were cultured and transfected with 3 µg DNA (either ASBT in pCMV plasmid or empty pCMV control plasmid) similarly to HEK cells, as previously described. Transfection efficiency was verified by western blotting, as previously published. A pre-incubation of the cell monolayers with DMEM supplemented with either DMSO (control) or 100 µM simvastatin was performed during 30 min. Synthetic mixed micelles containing vitamin D forms were diluted in DMEM (1:5) to avoid cytotoxicity [23](data not shown). Apical uptake of vitamin D forms was determined after a 1 h-incubation with a solution of micellar vitamin D containing either DMSO or 100 µM simvastatin (final concentration of DMSO in both conditions: 0.01%). The % of vitamin D taken up was estimated as the quantity of vitamin D present in the harvested cells divided by the sum of the quantity of vitamin D remaining in the apical chamber and that present in the harvested cells.

On the set-up of series [2]: method as in PubChem Website. Particulars: ref PubChem Website; cited from earlier work.
A further series addresses T2, SR-BI (Homo sapiens, UniProt Q8WTV0).
T2 construct: endogenous in cells; host or cells: Caco-2 clone TC-7
T2 sequence (Q8WTV0 1-509 isoform Q8WTV0-2): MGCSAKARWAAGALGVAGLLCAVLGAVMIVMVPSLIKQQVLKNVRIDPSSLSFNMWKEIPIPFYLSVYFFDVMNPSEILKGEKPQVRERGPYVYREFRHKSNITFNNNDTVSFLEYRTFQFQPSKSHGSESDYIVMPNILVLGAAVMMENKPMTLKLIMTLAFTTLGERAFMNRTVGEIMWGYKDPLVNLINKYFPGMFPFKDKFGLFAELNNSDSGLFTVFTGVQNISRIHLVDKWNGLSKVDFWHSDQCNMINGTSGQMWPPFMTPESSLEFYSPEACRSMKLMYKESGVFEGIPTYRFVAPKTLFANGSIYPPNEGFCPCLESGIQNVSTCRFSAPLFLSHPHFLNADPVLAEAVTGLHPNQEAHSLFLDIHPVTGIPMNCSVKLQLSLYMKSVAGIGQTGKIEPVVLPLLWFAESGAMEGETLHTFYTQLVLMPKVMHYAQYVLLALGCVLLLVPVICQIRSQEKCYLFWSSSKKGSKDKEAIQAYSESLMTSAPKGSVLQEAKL
Description: Uptake by Caco-2 cells with SR-BI inhibition by BLT1. Type of series: in vitro ADME. Conditions: 10 µM BLT1 (SR-BI inhibitor), n = 3. The procedure: as §3

Another series deals with T3, NPC1L1 (Homo sapiens, UniProt Q9UHC9).
T3 construct: endogenous in cells; host or cells: Caco-2 clone TC-7
T3 sequence (Q9UHC9 22-1359): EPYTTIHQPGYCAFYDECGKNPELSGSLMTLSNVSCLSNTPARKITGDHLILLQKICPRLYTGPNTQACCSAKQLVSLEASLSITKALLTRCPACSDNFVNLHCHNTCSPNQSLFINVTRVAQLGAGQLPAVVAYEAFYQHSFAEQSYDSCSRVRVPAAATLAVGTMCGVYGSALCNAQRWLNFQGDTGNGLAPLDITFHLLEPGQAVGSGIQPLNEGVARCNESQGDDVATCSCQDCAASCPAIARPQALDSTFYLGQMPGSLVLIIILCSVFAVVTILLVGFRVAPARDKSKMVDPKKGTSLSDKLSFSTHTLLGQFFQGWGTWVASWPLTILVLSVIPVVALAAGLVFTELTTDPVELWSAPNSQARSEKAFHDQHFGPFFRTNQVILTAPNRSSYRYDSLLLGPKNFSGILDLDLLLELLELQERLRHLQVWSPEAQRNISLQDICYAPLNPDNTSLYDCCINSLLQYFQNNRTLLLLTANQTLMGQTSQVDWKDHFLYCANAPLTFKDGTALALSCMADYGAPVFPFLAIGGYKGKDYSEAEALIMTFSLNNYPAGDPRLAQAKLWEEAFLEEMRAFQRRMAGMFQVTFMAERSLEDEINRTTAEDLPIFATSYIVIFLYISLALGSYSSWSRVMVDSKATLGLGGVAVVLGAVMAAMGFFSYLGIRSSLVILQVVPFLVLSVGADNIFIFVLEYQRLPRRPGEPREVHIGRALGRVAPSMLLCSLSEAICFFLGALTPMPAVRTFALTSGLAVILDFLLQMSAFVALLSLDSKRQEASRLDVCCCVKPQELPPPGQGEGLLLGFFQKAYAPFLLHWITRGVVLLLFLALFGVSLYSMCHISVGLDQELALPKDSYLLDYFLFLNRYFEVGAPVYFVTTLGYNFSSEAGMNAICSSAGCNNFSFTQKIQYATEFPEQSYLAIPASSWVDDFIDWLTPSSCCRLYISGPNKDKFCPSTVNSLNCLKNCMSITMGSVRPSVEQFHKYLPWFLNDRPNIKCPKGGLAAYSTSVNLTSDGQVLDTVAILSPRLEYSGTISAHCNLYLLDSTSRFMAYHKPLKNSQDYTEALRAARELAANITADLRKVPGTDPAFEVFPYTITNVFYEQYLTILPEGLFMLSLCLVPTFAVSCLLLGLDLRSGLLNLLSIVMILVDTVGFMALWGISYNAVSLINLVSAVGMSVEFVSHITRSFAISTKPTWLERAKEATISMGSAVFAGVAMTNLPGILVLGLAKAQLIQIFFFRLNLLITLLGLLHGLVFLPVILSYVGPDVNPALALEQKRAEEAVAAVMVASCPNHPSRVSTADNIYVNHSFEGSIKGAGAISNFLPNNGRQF
Nature of the series: Uptake by Caco-2 cells with NPC1L1 inhibition by ezetimibe glucuronide. Conditions: 10 µM ezetimibe glucuronide (NPC1L1 inhibitor), n = 3. The series is classed as in vitro ADME. The procedure:
as §3

In general, log P refers to a log measure of how a compound divides between an organic and an aqueous phase. `C=C1/C(=C\C=C2/CCC[C@]3(C)[C@@H]([C@H](C)CCCC(C)C)CC[C@@H]23)C[C@@H](O)C[C@@H]1O` [1α(OH)D3, 1-α-hydroxycholecalciferol]: the “incorporation efficiency into synthetic mixed micelles” value in series [1] is recorded as 62%. Further, in series [1] (vs 25-hydroxycholecalciferol), the “fold improvement of solubilization into mixed micelles compared to 25-hydroxycholecalciferol” value was determined as 2.9 fold. Also, in series [1] (vs cholecalciferol), the “fold improvement of solubilization into mixed micelles compared to cholecalciferol” value was found to be 1.6 fold. Also, the “decrease of uptake in the presence of simvastatin” value in the series on ASBT is roughly 15%. For the same compound, in the series with Caco-2 clone TC-7 cells, the “uptake rate by Caco-2 cells at high concentration” value came to 25% and the “uptake rate by Caco-2 cells at low concentration” value was 18%. Besides, on human ASBT, the “effect of ASBT overexpression on uptake” value is “changed neither”. Moreover, the log partition coefficient (log P) in series [2] was 6.8. Also, at SR-BI, the “decrease of uptake in the presence of BLT1” value (shortened to “decrease of uptake … of BLT1”) is “not significantly modified”. Also, the “decrease of uptake in the presence of ezetimibe glucuronide” value (from here on “decrease … of ezetimibe glucuronide”) at NPC1L1 is given as “but not”.
In the case of `C=C1CC[C@H](O)C/C1=C/C=C1\CCC[C@]2(C)[C@@H]([C@H](C)CCCC(C)(C)O)CC[C@@H]12` [25(OH)D3, 25-hydroxycholecalciferol], the “incorporation efficiency into synthetic mixed micelles” value in series [1] stood at 21%. Moreover, in the series on Caco-2 clone TC-7 cells, the “uptake rate by Caco-2 cells at high concentration” value came to 34% and the “uptake rate by Caco-2 cells at low concentration” value was 29%. In series [2], the “log P” value is reported as 6.2. The “decrease of uptake … of BLT1” value at SR-BI is “not significantly modified”. In addition, the “decrease … of ezetimibe glucuronide” value at NPC1L1 is recorded as “but not”.
As to `C=C1CC[C@H](O)C/C1=C/C=C1\CCC[C@]2(C)[C@@H]([C@H](C)CCCC(C)C)CC[C@@H]12` [D3, cholecalciferol], the “incorporation efficiency into synthetic mixed micelles” value in series [1] was 39%. Besides, the “decrease of uptake in the presence of simvastatin” value with ASBT is on record as “about 24%”. Further, in the series on Caco-2 clone TC-7 cells, the “uptake rate by Caco-2 cells at high concentration” value came to 18% and the “uptake rate by Caco-2 cells at low concentration” value was found to be 10%. Besides, the “effect of ASBT overexpression on uptake” value on human ASBT was “changed neither”. Also, the log partition coefficient (log P) in series [2] is 7.9. In addition, on SR-BI, the “decrease of uptake … of BLT1” value is on record as 31%. Besides, the “decrease … of ezetimibe glucuronide” value at NPC1L1 amounted to 30%.

The values are drawn from article PMC5691768, “Comparison of the Micellar Incorporation and the Intestinal Cell Uptake of Cholecalciferol, 25-Hydroxycholecalciferol and 1-α-Hydroxycholecalciferol” (Nutrients, 2017).
